Measurements: patent US10683297B2 (Sunshine Lake Pharma Co., Ltd., priority 2017, dated 2020)

Experiments:
JAK1 (h) = target: T1, JAK1 (h) (Homo sapiens, UniProt P23458); test: JAK1 (h) kinase assay; type: biochemical; details: [γ-33P-ATP] 10 μM or KM values; 40 minutes at room temperature
T1 construct: purchased Millipore UK Ltd (assays performed there as a service)
Description: The above assay procedure can be used to determine the IC50 for inhibition and/or the inhibition constant, Ki. […] The IC50 value is estimated by preparing a 10 point curve using a ½ log dilution series (for example, a typical curve may be prepared using the following compound concentrations: 3 μM, 1 μM, 0.3 μM, 0.1 μM, 0.03 μM, 0.01 μM, 0.003 μM, 0.001 μM, 0.0003 μM and 0 μM).
JAK1 (h) is incubated with 20 mM Tris/HCl pH 7.5, 0.2 mM EDTA, 500 μM […], 10 mM MgAcetate and [γ-^33P-ATP] […] The reaction is initiated by the addition of the MgATP mix. After incubation for 40 minutes at room temperature, the reaction is stopped by the addition of 3% phosphoric acid solution. 10 μL of the reaction is then spotted onto a P30 filtermat and washed three times for 5 minutes in 75 mM phosphoric acid and once in methanol prior to drying and scintillation counting.
The kinase assays described herein were performed at Millipore UK Ltd, Dundee Technology Park, Dundee DD2 1SW, UK.

[1] = Compound stability in human liver microsomes; type: in vitro ADME; details: for half-life at 5 μM: human liver microsomes 0.5 mg protein/mL, compound 5 μM, NADPH 1.0 mM, pH 7.4, 37° C., read-out: Human T1/2; for CLint scaled at 5 μM: liver microsomes, pH 7.4, in vivo CLint extrapolated from human liver microsome incubation
Description: (§1) The LC/MS/MS system used in the analysis consists of an Agilent 1200 Series vacuum degasser, binary pump, well-plate autosampler, thermostatted column compartment, the Agilent G6430 Triple Quadrupole Mass Spectrometer with an electrosprayionization (ESI) source. Quantitative analysis was carried out using MRM mode. The parameters for MRM transitions are in the Table A.
(§2) An Agilent XDB-C18, 2.1×30 mm, 3.5 μM column was used for the analysis. 5 μL of the samples were injected. Analysis condition: The mobile phase was 0.1% formic acid in water (A) and 0.1% formic acid in methanol (B). The flow rate was 0.4 mL/min. And the gradient of Mobile phase was in the Table B.
(§3) Alternatively, an Agilent 6330 series LC/MS/MS spectrometer equipped with G1312A binary pumps, a G1367A autosampler and a G1314C UV detector were used in the analysis. An ESI source was used on the LC/MS/MS spectrometer. The analysis was done in positive ion mode as appropriate and the MRM transition for each analyte was optimized using standard solution. A Capcell MP-C18 100×4.6 mm I.D., 5 uM column (Phenomenex, Torrance, Calif., USA) was used during the analysis. The mobile phase was 5 mM ammonia acetate, 0.1% MeOH in water (A): 5 mM ammonia acetate, 0.1% MeOH in acetonitrile (B) (70/30, v/v). The flow rate was 0.6 mL/min. Column was maintained at ambient temperature. 20 μL of the samples were injected.
(§4) Human or rat liver microsomes incubations were conducted in duplicate in polypropylene tubes. The typical incubation mixtures consisted of human or rat liver microsomes (0.5 mg protein/mL), compounds of interest (5 μM) and NADPH (1.0 mM) in a total volume of 200 μL potassium phosphate buffer (PBS, 100 mM, pH 7.4). Compounds were dissolved in DMSO and diluted with PBS such that the final concentration of DMSO was 0.05%. The enzymatic reactions were commenced with the addition of […] after a 3-min preincubation and incubated in a water bath open to the air at 37° C. Reactions were terminated at various time points (0, 5, 10, 15, 30, 60 min) by adding equal volume of ice-cold acetonitrile. The samples were stored at […] until LC/MS/MS assays.
(§5) The concentrations of compounds in the incubation mixtures of human or rat liver microsomes were determined by a LC/MS/MS method. The ranges of the linearity in the concentration range were determined for each tested compounds.
(§6) A parallel incubation was performed using denatured microsomes as the negative control, and reactions were terminated at various time points (0, 15, 60 min) after incubation at 37° C.
(§7) Dextromethorphan (70 μM) was selected as the positive control, and reactions were terminated at various time points (0, 5, 10, 15, 30, 60 min) after incubation at 37° C. Both positive and negative control samples were included in each assay to ensure the integrity of the microsomal incubation system.
(§8) The concentrations of compounds in human or rat liver microsome incubations were plotted as a percentage of the relevant zero time point control for each reaction. The in vivo CLint were extrapolated (ref.: Naritomi, Y.; Terashita, S.; Kimura, S.; Suzuki, A.; Kagayama, A.; and Sugiyama, Y.; Prediction of human hepatic clearance from in vivo animal experiments and in vitro metabolic studies with liver microsomes from animals and humans. Drug Metab. Dispos., 2001, 29: 1316-1324).

[2] = Compound stability in rat liver microsomes; type: in vitro ADME; details: for CLint scaled at 5 μM: liver microsomes, pH 7.4, in vivo CLint extrapolated from rat liver microsome incubation; for half-life at 5 μM: rat liver microsomes 0.5 mg protein/mL, compound 5 μM, NADPH 1.0 mM, pH 7.4, 37° C., read-out: Rat T1/2
Description: as §1, §2, §3, §4, §5, §6, §7, §8

[3] = Pharmacokinetics after intravenous and oral administration in rats; type: in vivo
Description: as §1, §2, §3
The compounds disclosed herein are assessed in pharmacokinetic studies in mice, rats, dogs or monkeys. The compounds are administered as a water solution, 2% HPMC+1% TWEEN®80 in water solution, 5% DMSO+5% solutol in saline, 4% MC suspension or capsule. For the intravenous administration, the animals are generally given at about 0.5, 0.6, 1 or 2 mg/kg dose. For the oral (p.o.) dosing, mice and rats are generally given 5 or 10 mg/kg dose, and dogs and monkeys are generally given 10 mg/kg dose. The blood samples (0.3 mL) are drawn at 0.25, 0.5, 1.0, 2.0, 3.0, 4.0, 6.0, 8.0, 12 and 24 h time points or 0.083, 0.25, 0.5, 1.0, 2.0, 4.0, 6.0, 8.0 and 24 h time points and centrifuged at 3,000 or 4000 rpm for 2 to 10 min. The plasma solutions are collected, and stored at […] until analyzed by LC/MS/MS as described above.

[4] = rat, plasma, iv dosing, dose 1 mg/kg (Ex. 9: 0.6, Ex. 18: 0.5, Ex. 50: 0.96 mg/kg)

T1 sequence (P23458 whole entry): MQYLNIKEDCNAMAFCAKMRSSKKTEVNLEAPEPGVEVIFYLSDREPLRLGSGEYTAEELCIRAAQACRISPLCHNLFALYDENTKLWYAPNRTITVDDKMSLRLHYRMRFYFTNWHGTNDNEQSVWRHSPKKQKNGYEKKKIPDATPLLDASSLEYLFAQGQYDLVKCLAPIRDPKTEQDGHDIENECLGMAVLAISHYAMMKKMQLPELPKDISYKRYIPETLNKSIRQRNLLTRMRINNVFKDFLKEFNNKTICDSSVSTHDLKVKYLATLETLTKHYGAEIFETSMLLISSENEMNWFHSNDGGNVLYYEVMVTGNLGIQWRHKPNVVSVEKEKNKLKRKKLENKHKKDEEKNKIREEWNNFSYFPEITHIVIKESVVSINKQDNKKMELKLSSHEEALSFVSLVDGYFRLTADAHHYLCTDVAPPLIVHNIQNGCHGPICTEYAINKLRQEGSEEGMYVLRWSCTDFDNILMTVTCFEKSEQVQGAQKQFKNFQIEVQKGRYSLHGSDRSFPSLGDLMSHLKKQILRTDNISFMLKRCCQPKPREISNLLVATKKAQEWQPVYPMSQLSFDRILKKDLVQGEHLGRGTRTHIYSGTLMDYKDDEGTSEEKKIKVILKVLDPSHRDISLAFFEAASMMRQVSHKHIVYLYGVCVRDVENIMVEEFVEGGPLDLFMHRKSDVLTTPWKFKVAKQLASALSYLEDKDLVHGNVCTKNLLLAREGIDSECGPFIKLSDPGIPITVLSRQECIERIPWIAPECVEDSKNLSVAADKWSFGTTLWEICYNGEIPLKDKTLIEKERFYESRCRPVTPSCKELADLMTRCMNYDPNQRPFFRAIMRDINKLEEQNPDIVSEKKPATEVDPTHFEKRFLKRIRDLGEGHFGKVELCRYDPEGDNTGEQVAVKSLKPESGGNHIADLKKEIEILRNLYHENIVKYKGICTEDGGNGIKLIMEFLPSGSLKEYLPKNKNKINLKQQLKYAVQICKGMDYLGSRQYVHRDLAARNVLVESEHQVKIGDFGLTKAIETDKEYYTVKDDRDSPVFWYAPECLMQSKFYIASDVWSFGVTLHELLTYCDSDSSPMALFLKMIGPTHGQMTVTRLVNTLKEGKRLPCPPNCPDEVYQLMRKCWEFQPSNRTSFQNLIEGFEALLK

| SMILES | IC50 (JAK1 (h)) [nM] | half-life at 5 μM [1] [min] | CLint scaled at 5 μM [1] [mL/min/kg] | CLint scaled at 5 μM [2] [mL/min/kg] | half-life at 5 μM [2] [min] | Clearance (CL) after iv dosing ([3]; iv dosing, dose 1 mg/kg (Ex. 9: 0.6, Ex. 18: 0.5, Ex. 50: 0.96 mg/kg)) [mL/min/kg] | AUC(0-t) [3, 4] [ng·h/mL] | half-life [3, 4] [min] | Vd ([3]; rat, plasma, iv dosing, dose 1 mg/kg (Ex. 9: 0.6, Ex. 18: 0.5, Ex. 50: 0.96 mg/kg), read-out: Vss) [L/kg] | bioavailability ([3]; rat, plasma, oral (generally 5 or 10 mg/kg) versus iv dosing, read-out: F (oral bioavailability)) [%] |
| --- | --- | --- | --- | --- | --- | --- | --- | --- | --- | --- |
| Cc1cnc2ccc(Nc3ncc(Cl)c(NC4CCN(c5ccc(C#N)nn5)CC4)n3)cn12 [Example 13, 6-(4-((5-chloro-2-((3-methylimidazo[1,2-a]pyridin-6-yl)amino)pyrimidin-4-yl)amino)piperidin-1-yl)pyridazine-3-carbonitrile] | 0.5 | 21.8 | 79.8 | 23.3 | 107 | – | – | – | – | – |
| Cc1nnc2cc(Nc3ncc(Cl)c(NC4CCN(c5ccc(C#N)nn5)CC4)n3)ccn12 [Example 20, 6-(4-((5-chloro-2-((3-methyl-[1,2,4]triazolo[4,3-a]pyridin-7-yl)amino)pyrimidin-4-yl)amino)piperidin-1-yl)pyridazine-3-carbonitrile] | 0.5 | 153 | 11.3 | 30 | 82.7 | – | – | – | – | – |
| Cc1cnc2cc(Nc3ncc(Cl)c(NC4CCN(c5ccc(C#N)cn5)CC4)n3)cnn12 [Example 21, 6-(4-((5-chloro-2-((3-methylimidazo[1,2-b]pyridazin-7-yl)amino)pyrimidin-4-yl)amino)piperidin-1-yl)nicotinonitrile] | < 0.3 | – | – | – | – | 11.8 | 1420 | 43.2 | 0.84 | 37 |
| Cc1nnc2cc(Nc3ncc(Cl)c(NC4CCN(c5ccc(C#N)cn5)CC4)n3)cnn12 [Example 25, 6-(4-((5-chloro-2-((3-methyl-[1,2,4]triazolo[4,3-b]pyridazin-7-yl)amino)pyrimidin-4-yl)amino)piperidin-1-yl)nicotinonitrile] | 3 | 61 | 28.5 | 54.9 | 45.2 | – | – | – | – | – |
| CC(O)c1cnc2cc(Nc3ncc(Cl)c(NC4CCN(c5ccc(C#N)cn5)CC4)n3)ccn12 (stereo not drawn) [Example 43, 6-(4-((5-chloro-2-((3-(1-hydroxyethyl)imidazo[1,2-a]pyridin-7-yl)amino)pyrimidin-4-yl)amino)piperidin-1-yl)nicotinonitrile] | < 0.3 | 23.5 | 74.1 | 57.5 | 43.2 | – | – | – | – | – |
| CC(C)(F)c1nc2cc(Nc3ncc(Cl)c(NC4CCN(c5ccc(C#N)cn5)CC4)n3)ccn2n1 [Example 59, 6-(4-((5-chloro-2-((2-(2-fluoropropan-2-yl)-[1,2,4]triazolo[1,5-a]pyridin-7-yl)amino)pyrimidin-4-yl)amino)piperidin-1-yl)nicotinonitrile] | 0.7 | 69.3 | 25.1 | 86.8 | 28.6 | – | – | – | – | – |
| CC(C)(O)Cn1cnc2cc(Nc3ncc(Cl)c(NC4CCN(c5ccc(C#N)cn5)CC4)n3)ccc21 [Example 64, 6-(4-((5-chloro-2-((1-(2-hydroxy-2-methylpropyl)-1H-benzo[d]imidazol-5-yl)amino)pyrimidin-4-yl)amino)piperidin-1-yl)nicotinonitrile] | 0.5 | 40.3 | 43.2 | 249 | 10 | – | – | – | – | – |
| CC(C)(O)c1nc2cc(Nc3ncc(Cl)c(NC4CCN(c5ccc(C#N)cn5)CC4F)n3)ccn2n1 (stereo not drawn) [Example 89, 6-(4-((5-chloro-2-((2-(2-hydroxypropan-2-yl)-[1,2,4]triazolo[1,5-a]pyridin-7-yl)amino)pyrimidin-4-yl)amino)-3-fluoropiperidin-1-yl)nicotinonitrile] | 2 | – | – | – | – | – | – | – | – | – |

Next, values leading:

| IC50 (JAK1 (h)) [nM] | half-life at 5 μM [1] [min] | CLint scaled at 5 μM [1] [mL/min/kg] | CLint scaled at 5 μM [2] [mL/min/kg] | half-life at 5 μM [2] [min] | Clearance (CL) after iv dosing ([3]; iv dosing, dose 1 mg/kg (Ex. 9: 0.6, Ex. 18: 0.5, Ex. 50: 0.96 mg/kg)) [mL/min/kg] | AUC(0-t) [3, 4] [ng·h/mL] | half-life [3, 4] [min] | Vd ([3]; rat, plasma, iv dosing, dose 1 mg/kg (Ex. 9: 0.6, Ex. 18: 0.5, Ex. 50: 0.96 mg/kg), read-out: Vss) [L/kg] | bioavailability ([3]; rat, plasma, oral (generally 5 or 10 mg/kg) versus iv dosing, read-out: F (oral bioavailability)) [%] | SMILES |
| --- | --- | --- | --- | --- | --- | --- | --- | --- | --- | --- |
| 3 | 26.1 | 66.7 | 232 | 10.7 | – | – | – | – | – | N#Cc1ccc(N2CCC(Nc3nc(Nc4ccn5c(C6CC6)cnc5c4)ncc3Cl)CC2)nn1 [Example 14, 6-(4-((5-chloro-2-((3-cyclopropylimidazo[1,2-a]pyridin-7-yl)amino)pyrimidin-4-yl)amino)piperidin-1-yl)pyridazine-3-carbonitrile] |
| 0.3 | 25.6 | 67.9 | 68.5 | 36.2 | – | – | – | – | – | CC(C)(O)c1cnc2cc(Nc3ncc(Cl)c(NC4CCN(c5ccc(C#N)nn5)CC4)n3)ccn12 [Example 66, 6-(4-((5-chloro-2-((3-(2-hydroxypropan-2-yl]imidazo[1,2-a]pyridin-7-yl)amino)pyrimidin-4-yl)amino)piperidin-1-yl)pyridazine-3-carbonitrile] |
| 0.9 | 18.9 | 91.8 | 438 | 5.67 | – | – | – | – | – | CC(C)(O)c1cn2ccc(Nc3ncc(Cl)c(NC4CCN(c5ccc(C#N)nn5)CC4)n3)cc2n1 [Example 71] |
| 0.6 | 40.7 | 42.7 | 131 | 19 | – | – | – | – | – | CC(C)(O)Cc1cnc2cc(Nc3ncc(Cl)c(NC4CCN(c5ccc(C#N)nn5)CC4)n3)ccn12 [Example 80, 6-(4-((5-chloro-2-((3-(2-hydroxy-2-methylpropyl)imidazo[1,2-a]pyridin-7-yl)amino)pyrimidin-4-yl)amino)piperidin-1-yl)pyridazine-3-carbonitrile] |
